Several values for one entry are separate records, joined by “and”; a condition that tells them apart may be missing. Equal values may be shown once. Read-outs that look alike come from different tables or passages of the source.
Tests used:
[1] = test system: LDLR; experiment: Cell-based assay for LDLR upregulation; conditions: compared to cells treated with same volume of DMSO
[2] = test system: HepG2 cells; experiment: Uptake of fluorescent Dil-LDL in HepG2 cells; assay type: cell-based; conditions: 10 μM
Excerpt: FIG. 5 provides a graph of the effect of SBC-115,418, SBC-115,433, SBC-115,448, and SBC-115,462 on the uptake of fluorescent Dil-LDL in HepG2 Cells. The compounds were validated for their ability to increase uptake of Fluorescent Dil-LDL in HepG2 cells.

[3] = target: T1, PCSK9/LDLR interaction (His-tagged PCSK9, recombinant LDLR-AB domain) (Homo sapiens, UniProt Q8NBP7); experiment: In vitro ELISA binding assay (Circulex) for inhibition of the PCSK9/LDLR interaction; conditions: for IC50 for inhibition of the PCSK9/LDLR interaction, range in words: FIG. 4A
T1 construct: purchased Circulex
T1 sequence (Q8NBP7 153-692): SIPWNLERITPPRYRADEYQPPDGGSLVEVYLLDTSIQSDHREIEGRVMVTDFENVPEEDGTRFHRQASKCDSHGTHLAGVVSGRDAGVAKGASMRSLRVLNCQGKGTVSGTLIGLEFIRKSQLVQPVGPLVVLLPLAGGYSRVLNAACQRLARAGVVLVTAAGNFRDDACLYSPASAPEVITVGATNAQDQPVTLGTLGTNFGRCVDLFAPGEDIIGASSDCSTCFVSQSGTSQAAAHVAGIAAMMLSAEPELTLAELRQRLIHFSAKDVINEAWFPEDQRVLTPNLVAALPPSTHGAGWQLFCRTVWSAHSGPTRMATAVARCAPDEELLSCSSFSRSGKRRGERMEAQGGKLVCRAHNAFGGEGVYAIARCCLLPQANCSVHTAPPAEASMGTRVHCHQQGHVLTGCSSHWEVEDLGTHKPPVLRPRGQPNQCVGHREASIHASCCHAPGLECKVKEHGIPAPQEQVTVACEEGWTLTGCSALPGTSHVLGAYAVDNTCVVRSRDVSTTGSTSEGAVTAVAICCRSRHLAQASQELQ
T1 sequence (Q8NBP7 31-152 partner limits assumed): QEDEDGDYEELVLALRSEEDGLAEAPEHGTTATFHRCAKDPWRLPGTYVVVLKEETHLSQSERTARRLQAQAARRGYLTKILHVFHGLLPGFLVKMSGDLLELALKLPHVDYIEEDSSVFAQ
Experimental: FIG. 4A provides a graph of the effect of SBC-115,418, SBC-115,433, SBC-115,448, and SBC-115,462 on the PCSK9/LDLR interaction. An in vitro ELISA assay kit was utilized (Circulex). For screening inhibitors of the PCSK9/LDLR interaction, different concentrations (0.01 nM-100 μM) of selected compounds were incubated with His-tagged PCSK9 and then added to wells that were pre-coated with recombinant LDLR-AB domain. After incubation, the plate was washed and the amount of recombinant His-tagged PCSK9 was measured using the biotinylated anti-His-tag and horseradish peroxidase conjugated Streptavidin and quantitated using a BioTek Synergy™ 2 plate reader. The effect of each compound on the PCSK9 binding to the recombinant LDLR-AB domain was calculated.
FIG. 4B provides a graph of the effect of SBC-115,418 on the PCSK9/LDLR interaction under increased solubilization conditions (10% DMSO) (418s). An in vitro ELISA assay (Circulex) was utilized. Different concentrations ([…]-100 μM) of SBC-115,418 in DMSO were incubated with His-tagged PCSK9 and then added to wells that were pre-coated with recombinant LDLR-AB domain as described in FIG. 4A.
(§1) Testing of SBC-115,418 and analogs was performed in a binding assay to determine their ability to inhibit the PCSK9/LDLR interaction. SBC-115,418 inhibited the PCSK9/LDLR interaction with an IC50 in the sub-micro-molar range. Experimental details are provided hereinabove and in WO 2017/222953. […] Given the lipophilicity of lead compound SBC-115,418, a solubility study was undertaken to look at its effects on binding (FIG. 4B). An in vitro ELISA binding assay was performed at different concentrations (0.01 μM-100 μM) of SBC-115,418 under different solubilization conditions.

[4] = test system: PCSK9; experiment: Test for secreted PCSK9 (synthesis, processing and secretion); assay type: cell-based; conditions: in the cells or into the media
Excerpt: Experimental details are provided hereinabove and in WO 2017/222953.

[5] = Lipophilicity and solubility of the compounds; assay type: physicochemical
Experimental: [formula] The size distribution of the nanoparticles in aqueous dispersions was determined using a Malvern zeta sizer (Malvern Instrumentation Co, Westborough, MA). 50 mg of the lyophilized nanoparticles were re-suspended in 2 mL of water. This nanoparticles solution was placed into a 3 mL, 4-sided, clear plastic cuvette, and measured directly. Shown are the HPLC chromatograms of SBC-115,418 used to construct the standard curve at different concentrations. Calibrator series of SBC-115,418 were prepared in DMSO by a 2-fold series dilution including 3.9, 7.8, 15.6, 31.5, 62.5, 125, and 250 μg/mL (left).
as §1

[6] = ELISA, read-out: in vitro inhibition of the PCSK9/LDLR interaction (IC50)

| Compound | level of LDLR versus DMSO control [1] | Fluorescent Dil-LDL uptake [2] | IC50 for inhibition of the PCSK9/LDLR interaction, range in words ([3]; ELISA) | IC50 [3, 6] | effect on PCSK9 synthesis, processing and secretion [4] | solubility ([5]; 80% acetonitrile, organic solvent or mixture) | IC50 ([3]; increased solubilization conditions (10% DMSO), FIG. 4B, read-out: IC50 of in vitro binding under improved solubility conditions) | logP [5] | solubility relative to SBC-115,418 [5] |
| --- | --- | --- | --- | --- | --- | --- | --- | --- | --- |
| O=C(Nc1ccc(-c2ncco2)cc1)c1ccc(NC(=O)c2cc3ccccc3o2)cc1 [SBC-115,433] | significant upregulation | increase | sub-micro-molar | < 5 µM | no significant effect | – | – | – | – |
| COc1ccc2oc(C(=O)Nc3ccc(C(=O)Nc4ccc(-c5nc6ccccc6o5)cc4)cc3)c(C)c2c1 [SBC-115,418] | significant upregulation | significant increase | sub-micro-molar | < 5 µM | no significant effect | < 100 µg/mL | 0.05 µM | – | – |
| COc1ccc2oc(C(=O)Nc3ccc(C(=O)Nc4ccc(-c5ncco5)cc4)cc3)c(C)c2c1 [SBC-115,462] | significant upregulation | significant increase | low micro-molar | < 5 µM | no significant effect | – | – | – | – |
| O=C(Nc1ccc(C(=O)Nc2ccc(-c3ncco3)cc2)c(F)c1)c1cc2ccccc2o1 [SBC-115,448] | significant upregulation | increase | low micro-molar | < 5 µM | no significant effect | – | – | – | – |
| COc1ccc2oc(C(=O)Nc3ccc(C(=O)Nc4ccc(-c5nc6ccccc6[nH]5)cc4)cc3)c(C)c2c1 [SBC-115,477] | upregulation | – | sub-micro-molar | < 5 µM and 0.19 µM | no significant effect | – | – | 4.5 | increased solubility |

Source: patent publication US12274693B2, “Anti-proprotein convertase subtilisin kexin type 9 (anti-PCSK9) nano-formulation of compounds and methods of using the same” (SHIFA BIOMEDICAL CORPORATION, priority 2018, dated 2025)
